Assay results reported in ChEMBL document CHEMBL4622974, “Leveraging an Open Science Drug Discovery Model to Develop CNS-Penetrant ALK2 Inhibitors for the Treatment of Diffuse Intrinsic Pontine Glioma” (J Med Chem, 2020).

Key:
TGF-beta receptor type-1 [1] = target: T1, TGF-beta receptor type-1 (Homo sapiens, UniProt P36897); test: Inhibition of human ALK5 using casein as substrate in presence of [gamma-33P]-ATP by radiometric hotspot assay; type: ADME
T1 sequence (P36897 whole entry): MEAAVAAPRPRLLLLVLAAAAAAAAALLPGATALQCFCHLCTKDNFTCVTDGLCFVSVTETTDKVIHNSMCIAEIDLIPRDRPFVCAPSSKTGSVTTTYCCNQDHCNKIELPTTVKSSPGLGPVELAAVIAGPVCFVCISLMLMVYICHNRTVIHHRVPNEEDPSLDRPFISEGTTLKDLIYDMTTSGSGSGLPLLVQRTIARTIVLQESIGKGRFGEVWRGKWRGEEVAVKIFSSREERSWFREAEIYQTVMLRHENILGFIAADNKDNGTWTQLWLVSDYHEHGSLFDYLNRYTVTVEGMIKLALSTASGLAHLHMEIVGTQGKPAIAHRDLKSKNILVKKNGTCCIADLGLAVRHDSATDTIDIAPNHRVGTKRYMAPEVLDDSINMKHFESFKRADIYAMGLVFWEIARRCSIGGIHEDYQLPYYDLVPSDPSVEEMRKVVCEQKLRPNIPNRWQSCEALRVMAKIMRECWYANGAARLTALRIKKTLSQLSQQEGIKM

TGF-beta receptor type-1 [2] = target: T1, TGF-beta receptor type-1; test: Inhibition of recombinant human ALK5 expressed in HEK293 cells transfected with CAGA-luciferase and Renilla luciferase reporter after 24 hrs by dual luciferase reporter assay; type: cell-based
[3] = target: Voltage-gated inwardly rectifying potassium channel KCNH2 (Homo sapiens, UniProt Q12809); test: Inhibition of human ERG expressed in HEK293 cells after 5 mins by IonWorks barracuda patch clamp method; type: cell-based
Sequence of Voltage-gated inwardly rectifying potassium channel KCNH2 (Q12809 whole entry): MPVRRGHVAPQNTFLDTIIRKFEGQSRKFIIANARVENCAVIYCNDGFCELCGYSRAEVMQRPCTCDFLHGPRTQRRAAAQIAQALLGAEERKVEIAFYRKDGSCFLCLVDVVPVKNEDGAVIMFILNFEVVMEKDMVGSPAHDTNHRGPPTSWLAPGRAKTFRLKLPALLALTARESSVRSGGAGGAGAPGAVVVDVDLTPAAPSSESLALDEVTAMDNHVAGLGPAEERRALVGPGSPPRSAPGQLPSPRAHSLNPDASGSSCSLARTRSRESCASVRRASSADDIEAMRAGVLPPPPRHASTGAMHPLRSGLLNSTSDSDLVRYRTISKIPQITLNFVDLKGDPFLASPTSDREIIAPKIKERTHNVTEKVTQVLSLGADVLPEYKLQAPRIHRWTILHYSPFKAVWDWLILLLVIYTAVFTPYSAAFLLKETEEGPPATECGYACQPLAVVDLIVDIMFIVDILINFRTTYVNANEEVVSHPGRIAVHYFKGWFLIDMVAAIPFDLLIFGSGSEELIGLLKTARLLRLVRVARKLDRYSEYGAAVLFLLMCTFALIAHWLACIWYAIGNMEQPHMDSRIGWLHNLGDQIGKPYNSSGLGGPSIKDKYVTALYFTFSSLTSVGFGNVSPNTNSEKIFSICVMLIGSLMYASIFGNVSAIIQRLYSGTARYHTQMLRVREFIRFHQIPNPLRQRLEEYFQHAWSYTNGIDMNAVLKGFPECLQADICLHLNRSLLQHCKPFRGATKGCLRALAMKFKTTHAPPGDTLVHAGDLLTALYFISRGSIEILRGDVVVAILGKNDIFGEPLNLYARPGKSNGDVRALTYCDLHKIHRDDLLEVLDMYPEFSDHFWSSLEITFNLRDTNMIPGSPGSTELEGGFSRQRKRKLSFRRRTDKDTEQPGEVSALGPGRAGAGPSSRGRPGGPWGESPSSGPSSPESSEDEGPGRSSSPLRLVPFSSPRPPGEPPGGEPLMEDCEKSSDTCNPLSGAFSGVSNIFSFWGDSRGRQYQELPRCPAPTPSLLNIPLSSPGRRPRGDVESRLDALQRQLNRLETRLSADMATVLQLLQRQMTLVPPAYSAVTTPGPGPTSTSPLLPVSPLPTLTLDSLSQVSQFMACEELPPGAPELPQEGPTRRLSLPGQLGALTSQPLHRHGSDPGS

[4] = Ratio of drug level in brain to plasma in CB17 SCID mouse at 10 mg/kg, po measured at 4 h; type: ADME, organism-based; conditions: brain and plasma, read-out: BPR
[5] = target: Bone morphogenetic protein receptor type-1B (Homo sapiens, UniProt O00238); test: Inhibition of human ALK6 using casein as substrate in presence of [gamma-33P]-ATP by radiometric hotspot assay
Sequence of Bone morphogenetic protein receptor type-1B (O00238 whole entry): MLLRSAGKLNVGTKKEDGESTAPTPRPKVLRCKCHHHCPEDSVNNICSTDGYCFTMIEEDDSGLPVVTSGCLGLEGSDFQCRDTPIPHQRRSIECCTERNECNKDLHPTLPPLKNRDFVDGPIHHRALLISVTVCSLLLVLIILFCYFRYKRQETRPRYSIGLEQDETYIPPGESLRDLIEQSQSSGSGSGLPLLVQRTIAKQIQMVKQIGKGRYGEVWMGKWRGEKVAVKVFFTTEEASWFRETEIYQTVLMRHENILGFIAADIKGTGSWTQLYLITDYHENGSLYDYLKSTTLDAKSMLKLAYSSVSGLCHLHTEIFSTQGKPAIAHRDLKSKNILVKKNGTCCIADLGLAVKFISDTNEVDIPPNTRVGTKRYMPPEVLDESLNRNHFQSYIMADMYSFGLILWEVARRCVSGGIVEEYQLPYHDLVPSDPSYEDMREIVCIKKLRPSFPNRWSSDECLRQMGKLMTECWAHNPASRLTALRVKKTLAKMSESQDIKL

[6] = target: Alpha-1A adrenergic receptor (Rattus norvegicus, UniProt P43140); test: Inhibition of rat adrenergic alpha1A receptor at 10 uM relative to control
Sequence of Alpha-1A adrenergic receptor (P43140 whole entry): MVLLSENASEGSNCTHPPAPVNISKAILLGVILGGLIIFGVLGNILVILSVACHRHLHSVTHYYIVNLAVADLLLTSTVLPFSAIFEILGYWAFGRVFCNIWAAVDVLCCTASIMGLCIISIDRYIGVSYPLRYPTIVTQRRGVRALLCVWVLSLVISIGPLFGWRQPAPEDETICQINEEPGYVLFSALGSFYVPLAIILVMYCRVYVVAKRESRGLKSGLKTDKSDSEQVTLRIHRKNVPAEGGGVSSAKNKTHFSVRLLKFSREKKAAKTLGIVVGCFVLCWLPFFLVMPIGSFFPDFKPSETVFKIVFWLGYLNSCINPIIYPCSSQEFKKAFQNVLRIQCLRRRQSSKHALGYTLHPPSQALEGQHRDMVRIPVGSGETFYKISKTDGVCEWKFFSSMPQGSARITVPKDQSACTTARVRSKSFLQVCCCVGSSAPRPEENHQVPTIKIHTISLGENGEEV

[7] = target: Alpha-2A adrenergic receptor (Homo sapiens, UniProt P08913); test: Inhibition of recombinant human adrenergic alpha2A receptor incubated for 60 mins by scintillation counting method
Sequence of Alpha-2A adrenergic receptor (P08913 whole entry): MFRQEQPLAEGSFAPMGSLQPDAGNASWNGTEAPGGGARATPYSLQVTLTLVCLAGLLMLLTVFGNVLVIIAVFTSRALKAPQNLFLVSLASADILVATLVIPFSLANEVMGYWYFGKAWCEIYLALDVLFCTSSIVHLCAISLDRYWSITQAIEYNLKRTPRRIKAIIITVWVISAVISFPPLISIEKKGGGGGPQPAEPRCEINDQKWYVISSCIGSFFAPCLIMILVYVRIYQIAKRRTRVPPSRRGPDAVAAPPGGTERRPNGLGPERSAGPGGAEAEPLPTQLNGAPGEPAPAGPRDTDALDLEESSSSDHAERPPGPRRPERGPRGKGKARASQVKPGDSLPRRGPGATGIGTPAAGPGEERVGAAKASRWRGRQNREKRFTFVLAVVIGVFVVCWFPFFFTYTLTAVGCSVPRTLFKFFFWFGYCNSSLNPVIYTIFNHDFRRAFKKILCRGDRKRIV

Cytochrome P450 2D6 = Cytochrome P450 2D6 (Homo sapiens, UniProt P10635); test: Inhibition of CYP2D6 in human liver microsomes using dextromethorphan as substrate incubated for 20 mins in presence of NADPH by LC/MS/MS analysis; type: ADME
Sequence of Cytochrome P450 2D6 (P10635 whole entry): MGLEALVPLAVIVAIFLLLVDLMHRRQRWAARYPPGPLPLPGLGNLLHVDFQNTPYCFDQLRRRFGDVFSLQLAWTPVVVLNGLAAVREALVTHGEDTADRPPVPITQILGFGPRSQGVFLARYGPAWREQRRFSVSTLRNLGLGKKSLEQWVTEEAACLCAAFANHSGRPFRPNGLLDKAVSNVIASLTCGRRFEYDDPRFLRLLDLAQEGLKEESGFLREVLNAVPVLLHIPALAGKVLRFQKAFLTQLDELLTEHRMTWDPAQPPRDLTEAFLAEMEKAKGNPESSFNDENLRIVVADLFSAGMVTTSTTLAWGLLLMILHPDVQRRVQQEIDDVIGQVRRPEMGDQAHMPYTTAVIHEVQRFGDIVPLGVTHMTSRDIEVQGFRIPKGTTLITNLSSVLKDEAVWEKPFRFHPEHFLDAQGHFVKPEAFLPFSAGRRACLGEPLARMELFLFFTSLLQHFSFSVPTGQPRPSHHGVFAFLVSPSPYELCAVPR

[8] = Plasma concentration in NOD/SCID mouse at 25 mg/kg, po measured after 0.5 to 6 hrs; type: ADME, organism-based; conditions: in vivo
[9] = Protein binding in CD-1 mouse brain at 1 mg/kg, iv measured at 2 hrs; type: ADME, organism-based; conditions: read-out: PB (converted)
[10] = Toxicity in C57BL/6 mouse assessed as mouse death at 100 mg/kg, po QD administered for 5 days measured after 24 hrs; type: organism-based; conditions: in vivo
[11] = Ratio of drug level in brain to plasma in CB17 SCID mouse at 50 mg/kg, po measured at 4 h; type: ADME, organism-based; conditions: read-out: BPR

IC50 (TGF-beta receptor type-1 [1])	IC50 (TGF-beta receptor type-1 [2])	Kp at 4 h [4]	SMILES	IC50 [3]	IC50 [5]	inhibition at 10 µM [6]	IC50 [7]	IC50 (Cytochrome P450 2D6)	concentration [8]	fraction unbound at 2 h [9]	Activity [10]	Kp at 4 h [11]
> 5 µM	3.33 µM	0.82	COc1cc(-c2cncc(-c3ccc(C4CCN(C)CC4)cc3)c2C)cc(OC)c1OC	4.8 µM	–	–	–	–	–	–	–	–
–	–	–	COc1cc(-c2cncc(-c3ccc(N4CCNCC4)cc3)c2C)cc(OC)c1OC	–	0.068 µM	65%	2.18 µM	> 30 µM	7.46 µM	0.03	Non-Toxic	1.8
